Measurements reported in US9926315B2, “Triazolopyridine compounds and methods for the treatment of cystic fibrosis” (Flatley Discovery Lab, LLC, priority 2014, dated 2018).
pEC50: −log10 of the molar value.

Molecular target: T1, human ΔF508-CFTR (Homo sapiens, UniProt P13569, DEL508-508)
T1 construct: expressed in transfected cells
Assay: CFTR-YFP High Throughput Assay (HTS YFP flux assay, corrector / potentiator protocols)
Assay type: cell-based
Conditions: FRT cells stably expressing human ΔF508-CFTR and YFP-H148Q/I152L; for Emax: normalized to positive control, read-out: Emax (% Efficacy, EMax normalized to the positive control)
Protocol: Assays for Detecting and Measuring the Effect of Compounds on dF508-CFTR Channels CFRT-YFP High Throughput Assay: Corrector Assay:
The following protocol is designed to selectively screen small molecule compounds for F508del CFTR corrector activities in the HTS YFP flux assay. In this protocol, the cells are incubated with testing compounds for 24 hours, washed with PBS, stimulated with forskolin and a standard potentiator, and read on a 384-well HTS plate reader, such as the Hamamatsu FDDD-6000.
(§1) YFP fluorescence intensity is acquired at high speed before and after iodide buffer is injected to the assay cells. Iodide enters the cells via active CFTR channels in the plasma membrane, and quenches the YFP fluorescence. The rate of fluorescence quenching is proportionally related to the total CFTR activities in the cell membrane. dF508-CFTR corrector accelerates YFP quenching by increasing the number of CFTR molecules in the testing cell plasma membrane.
This method was initially developed for bench top plate readers (Galietta, 2001), and was adapted to the HTS format (Sui, 2010).
Fisher Rat Thyroid (FRT) cells stably expressing both human ΔF508-CFTR and a halide-sensitive yellow fluorescent protein (YFP-H148Q/I152L 25, 22) (Galietta, 2001) were cultured on plastic surface in Coon's modified Ham's F12 medium supplemented with FBS 10%, L-glutamine 2 mM, penicillin 100 U/mL, and streptomycin 100 μg/mL. G418 (0.75-1.0 mg/mL) and zeocin (3.2 μg/mL) were used for selection of FRT cells expressing ΔF508-CFTR and YFP. For primary screening, FRT cells were plated into 384-well black wall, transparent bottom microtiter plates (Costar; Corning Inc.) at a cell density of 20, 000-40, 000 per well. Test compound was applied to the cells at varying concentrations ranging from 2 nM-[…] in either a 2-fold or 3-fold dilution series. Cells were incubated in a cell culture incubator at 37° C. with 5% CO2 for 24-26 h. Assay plates were washed with DPBS media (Thermo, cat#SH30028.02) to remove unbound cells and compound. Stimulation media (25 μL) containing 20 μM Forskolin & 30 μM P3 [6-(Ethyl-phenyl-sulfonyl)-4-oxo-1, 4-dihydro-quinoline-3-carboxylic acid 2-methoxy-benzylamide] in Hams F-12 coon's modified media was added to the plate wells and incubated at room temperature for 60-120 min. 25 μL of HEPES-PBS-I buffer (10 mM HEPES, 1 mM MgCl2, 3 mM KCl, 1 mM CaCl2, 150 mM NaI) was then added and fluorescence quench curves (Excitation 500 nm/Emission 540 nm; exposure 136 ms) were immediately recorded on an FDSS-6000 plate reader (Hamamatsu). Quench rates were derived from least squares fitting of the data (Sui, 2010).
The following protocol is designed to selectively screen small molecule compounds for F508del CFTR potentiator activities in the HTS YFP flux assay. In this protocol, the cells are incubated at 27° C. for 24 hours with homogeneously boosted dF508-CFTR expression in the cell membrane by the low temperature, washed with PBS, stimulated with forskolin, and read on a 384-well HTS plate reader, such as the Hamamatsu […].
as §1, with “dF508del-CFTR potentiators accelerate” for “dF508-CFTR corrector accelerates”, “increasing” for “increasing the number of”, “activities” for “molecules”
Fisher Rat Thyroid (FRT) cells stably expressing both human ΔF508-CFTR and a halide-sensitive yellow fluorescent protein (YFP-H148Q/I152L 25, 22) (Galietta, 2001) were cultured on plastic surface in Coon's modified Ham's F12 medium supplemented with FBS 10%, L-glutamine 2 mM, penicillin 100 U/mL, and streptomycin 100 μg/mL. G418 (0.75-1.0 mg/mL) and zeocin (3.2 μg/mL) were used for selection of FRT cells expressing ΔF508-CFTR and YFP. […]

T1 sequence (P13569 with tags, fused parts or gaps DEL508-508): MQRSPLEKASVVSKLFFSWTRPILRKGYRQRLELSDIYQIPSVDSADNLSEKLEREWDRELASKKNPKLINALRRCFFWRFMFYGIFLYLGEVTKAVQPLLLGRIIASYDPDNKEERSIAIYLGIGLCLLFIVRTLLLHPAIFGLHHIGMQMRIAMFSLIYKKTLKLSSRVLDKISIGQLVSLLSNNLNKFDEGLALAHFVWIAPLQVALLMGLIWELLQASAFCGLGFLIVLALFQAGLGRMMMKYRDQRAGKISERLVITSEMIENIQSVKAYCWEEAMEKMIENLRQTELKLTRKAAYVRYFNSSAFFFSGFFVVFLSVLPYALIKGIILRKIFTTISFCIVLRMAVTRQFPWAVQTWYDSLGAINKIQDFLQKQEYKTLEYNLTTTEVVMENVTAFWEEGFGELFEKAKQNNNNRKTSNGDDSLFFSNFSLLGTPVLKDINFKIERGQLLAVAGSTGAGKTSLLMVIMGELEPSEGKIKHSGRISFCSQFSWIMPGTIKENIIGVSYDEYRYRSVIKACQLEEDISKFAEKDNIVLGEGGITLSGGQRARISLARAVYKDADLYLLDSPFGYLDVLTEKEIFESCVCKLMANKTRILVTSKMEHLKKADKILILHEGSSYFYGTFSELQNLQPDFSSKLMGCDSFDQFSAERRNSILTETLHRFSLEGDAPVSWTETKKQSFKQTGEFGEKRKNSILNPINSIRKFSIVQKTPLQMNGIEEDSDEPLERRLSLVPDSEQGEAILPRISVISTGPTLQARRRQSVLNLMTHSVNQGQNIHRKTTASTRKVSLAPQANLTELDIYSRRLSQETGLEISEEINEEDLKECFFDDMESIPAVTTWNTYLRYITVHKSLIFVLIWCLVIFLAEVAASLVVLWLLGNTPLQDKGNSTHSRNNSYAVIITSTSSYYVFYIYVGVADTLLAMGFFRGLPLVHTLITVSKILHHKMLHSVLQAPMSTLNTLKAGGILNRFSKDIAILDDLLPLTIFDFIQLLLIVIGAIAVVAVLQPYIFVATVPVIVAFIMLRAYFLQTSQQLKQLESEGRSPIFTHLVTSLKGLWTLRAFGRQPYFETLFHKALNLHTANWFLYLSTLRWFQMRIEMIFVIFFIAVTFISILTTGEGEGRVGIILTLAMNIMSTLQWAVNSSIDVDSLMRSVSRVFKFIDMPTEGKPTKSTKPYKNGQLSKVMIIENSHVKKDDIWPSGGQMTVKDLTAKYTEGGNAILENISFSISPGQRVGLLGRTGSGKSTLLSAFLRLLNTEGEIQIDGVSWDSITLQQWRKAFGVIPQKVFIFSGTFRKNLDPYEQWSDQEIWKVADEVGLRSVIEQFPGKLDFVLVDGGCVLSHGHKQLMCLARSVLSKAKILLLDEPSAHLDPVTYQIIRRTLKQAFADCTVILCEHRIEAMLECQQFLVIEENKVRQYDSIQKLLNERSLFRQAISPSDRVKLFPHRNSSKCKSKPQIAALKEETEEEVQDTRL

SMILES | pEC50 | Emax [%]
CCN(CC)S(=O)(=O)c1ccc2nnc(NCc3ccccc3)n2c1 [Example 1, 3-(Benzylamino)-N,N-diethyl-[1,2,4]triazolo[4,3-a]pyridine-6-sulfonamide] | > 6.00 | > 80
CCN(CC)S(=O)(=O)c1ccc2nnc(NC3CCCc4ccccc43)n2c1 (centres unmarked) [Example 2] | > 6.00 | > 80
CCN(CC)S(=O)(=O)c1ccc2nnc(N(C)Cc3ccccc3)n2c1 [Example 3] | > 6.00 | 40 to 80
CCN(CC)S(=O)(=O)c1ccc2nnc(NC3Cc4ccccc4C3)n2c1 [Example 4] | > 6.00 | > 80
CCN(CC)S(=O)(=O)c1ccc2nnc(NCc3ccc(-c4ccccc4)cc3)n2c1 [Example 5] | > 6.00 | > 80
CCN(CC)S(=O)(=O)c1ccc2nnc(N3CCN(Cc4ccccc4)CC3)n2c1 [Example 6] | 5.00 to 6.00 | 40 to 80
CCN(CC)S(=O)(=O)c1ccc2nnc(NCC(C)(C)C)n2c1 [Example 7] | > 6.00 | 40 to 80
CCN(CC)S(=O)(=O)c1ccc2nnc(NCC3CC3)n2c1 [Example 8] | > 6.00 | > 80
CCN(CC)S(=O)(=O)c1ccc2nnc(NCc3ccc(C)cc3)n2c1 [Example 9] | > 6.00 | > 80
CCN(CC)S(=O)(=O)c1ccc2nnc(NCc3cccc(C)c3)n2c1 [Example 10] | > 6.00 | > 80
CCN(CC)S(=O)(=O)c1ccc2nnc(NC3CCCCC3)n2c1 [Example 11] | > 6.00 | > 80
CCN(CC)S(=O)(=O)c1ccc2nnc(NC(=O)c3ccccc3)n2c1 [Example 12] | 5.00 to 6.00 | 40 to 80
CCN(CC)S(=O)(=O)c1ccc2nnc(NCc3ccccc3C)n2c1 [Example 13] | > 6.00 | 40 to 80
CCN(CC)S(=O)(=O)c1ccc2nnc(NCC3CCCO3)n2c1 (centres unmarked) [Example 14] | < 5.00 | 40 to 80
CCN(CC)S(=O)(=O)c1ccc2nnc(NCc3cccnc3)n2c1 [Example 15] | < 5.00 | 40 to 80
CCN(CC)S(=O)(=O)c1ccc2nnc(NCc3ccc(OC)cc3)n2c1 [Example 16] | > 6.00 | 40 to 80
CCN(CC)S(=O)(=O)c1ccc2nnc(NCC(C)C)n2c1 [Example 17] | > 6.00 | > 80
CCN(CC)S(=O)(=O)c1ccc2nnc(NCC(C)(C)O)n2c1 [Example 18] | 5.00 to 6.00 | 40 to 80
CCN(CC)S(=O)(=O)c1ccc2nnc(NCCC(C)C)n2c1 [Example 19] | > 6.00 | > 80
CCN(CC)S(=O)(=O)c1ccc2nnc(N[C@H](C)c3ccccc3)n2c1 [Example 20] | > 6.00 | > 80
CCN(CC)S(=O)(=O)c1ccc2nnc(N[C@@H](C)c3ccccc3)n2c1 [Example 21] | > 6.00 | > 80
CCN(CC)S(=O)(=O)c1ccc2nnc(NCC(=O)Nc3ccc(C)c(C)c3)n2c1 [Example 22] | > 6.00 | 40 to 80
CCN(CC)S(=O)(=O)c1ccc2nnc(NC[C@H]3CCCO3)n2c1 [Example 23] | < 5.00 | > 80
CCN(CC)S(=O)(=O)c1ccc2nnc(NCC(O)COC)n2c1 (centres unmarked) [Example 24] | 5.00 to 6.00 | > 80
CCN(CC)S(=O)(=O)c1ccc2nnc(NCCc3ccccc3)n2c1 [Example 25] | > 6.00 | > 80
CCN(CC)S(=O)(=O)c1ccc2nnc(NC3CCCC3)n2c1 [Example 26] | > 6.00 | > 80

SMILES | pEC50 | Emax [%]
CCN(CC)S(=O)(=O)c1ccc2nnc(NC(C)c3ccc(C)cc3)n2c1 (centres unmarked) [Example 27] | > 6.00 | > 80
CCN(CC)S(=O)(=O)c1ccc2nnc(NC(C)c3ccc(OC)cc3)n2c1 (centres unmarked) [Example 28] | > 6.00 | > 80
CCC(Nc1nnc2ccc(S(=O)(=O)N(CC)CC)cn12)c1ccccc1 (centres unmarked) [Example 29] | > 6.00 | > 80
CCN(CC)S(=O)(=O)c1ccc2nnc(NC3CCc4ccccc43)n2c1 (centres unmarked) [Example 30] | > 6.00 | > 80
CCN(CC)S(=O)(=O)c1ccc2nnc(NCC(C)(C)OC)n2c1 [Example 31] | 5.00 to 6.00 | 40 to 80
CCN(CC)S(=O)(=O)c1ccc2nnc(NC3CCc4ccccc4C3)n2c1 (centres unmarked) [Example 32] | 5.00 to 6.00 | 40 to 80
CCN(CC)S(=O)(=O)c1ccc2nnc(N[C@@H]3C[C@H]4CC[C@@H]3C4)n2c1 [Example 33] | > 6.00 | > 80
CCN(CC)S(=O)(=O)c1ccc2nnc(N[C@H](C)C3CCCCC3)n2c1 [Example 34] | > 6.00 | > 80
CCN(CC)S(=O)(=O)c1ccc2nnc(N[C@H](C)c3ccc(C)cc3)n2c1 [Example 35] | > 6.00 | > 80
CCN(CC)S(=O)(=O)c1ccc2nnc(NCc3ccc(OC(C)C)cc3)n2c1 [Example 36] | > 6.00 | > 80
CCN(CC)S(=O)(=O)c1ccc2nnc(NCc3ccc(N(C)C)cc3)n2c1 [Example 37] | > 6.00 | > 80
CCN(CC)S(=O)(=O)c1ccc2nnc(N[C@@H](C)c3ccc(C)cc3)n2c1 [Example 38] | > 6.00 | > 80
CCN(CC)S(=O)(=O)c1ccc2nnc(NCc3ccc(C)c(C)c3)n2c1 [Example 39] | > 6.00 | > 80
CCN(CC)S(=O)(=O)c1ccc2nnc(NCc3ccc4c(c3)CCO4)n2c1 [Example 40] | > 6.00 | > 80
CCN(CC)S(=O)(=O)c1ccc2nnc(N[C@H](C)c3ccc(F)cc3)n2c1 [Example 41] | > 6.00 | > 80
CCN(CC)S(=O)(=O)c1ccc2nnc(NC(C)CC(C)C)n2c1 (centres unmarked) [Example 42] | > 6.00 | > 80
CCN(CC)S(=O)(=O)c1ccc2nnc(NC(C)C(C)C)n2c1 (centres unmarked) [Example 43] | > 6.00 | > 80
CCN(CC)S(=O)(=O)c1ccc2nnc(NC3CCOc4ccccc43)n2c1 (centres unmarked) [Example 44] | > 6.00 | > 80
CCN(CC)S(=O)(=O)c1ccc2nnc(NCCC(C)(C)C)n2c1 [Example 45] | > 6.00 | > 80
CCN(CC)S(=O)(=O)c1ccc2nnc(N[C@@H]3CCc4ccccc43)n2c1 [Example 46] | > 6.00 | 40 to 80
CC(C)N(C(C)C)S(=O)(=O)c1ccc2nnc(N[C@H](C)c3ccccc3)n2c1 [Example 47] | > 6.00 | 40 to 80
CCN(CC)S(=O)(=O)c1ccc2nnc(NCc3ccc(C(F)(F)F)cc3)n2c1 [Example 48] | > 6.00 | > 80
CCN(CC)S(=O)(=O)c1ccc2nnc(NCc3ccc(F)cc3)n2c1 [Example 49] | > 6.00 | > 80
CCN(CC)S(=O)(=O)c1ccc2nnc(NCC3CCOCC3)n2c1 [Example 50] | > 6.00 | > 80
CCN(CC)S(=O)(=O)c1ccc2nnc(N[C@@H](c3ccccc3)C(C)C)n2c1 [Example 51] | > 6.00 | > 80
CCN(CC)S(=O)(=O)c1ccc2nnc(NCC3CCCCC3)n2c1 [Example 52] | 5.00 to 6.00 | > 80
